In ChEMBL document CHEMBL1148857, “In vitro and in vivo profile of 5-[(4'-trifluoromethyl-biphenyl-2-carbonyl)-amino]-1H-indole-2-carboxylic acid benzylmethyl carbamoylamide (dirlotapide), a novel potent MTP inhibitor for obesity” (Bioorg Med Chem Lett, 2007):
pIC50: −log10 of the molar value. Activity calls are given as the source filed them. The calls are words filed in the database; no cut-off is given here.

Key:
[1] = molecular target: Melanocortin receptor 4 (Homo sapiens) (UniProt P32245); assay: Inhibition of melanocortin MC4 receptor at 1 uM
CYP2C19 = assay: Metabolic stability in human liver microsome at 0.5 uM in presence of 200 uM CYP2C19 inhibitor (S)-mephenytoin; assay type: ADME; details: liver microsomes, with 200 uM (S)-mephenytoin (CYP2C19 inhibitor)
[2] = Tmax in rat at 3 mg/kg, po; assay type: ADME, organism-based; set-up: dose 3 mg/kg, route oral; details: in vivo
[3] = molecular target: Type-1 angiotensin II receptor (Homo sapiens) (UniProt P30556); assay: Inhibition of AT1 receptor at 1 uM
[4] = AUC (0 to infinity) in rat at 0.3 mg/kg, iv; assay type: ADME, organism-based; set-up: time infinity, dose 0.3 mg/kg, route intravenous; details: plasma
[5] = AUC (0 to infinity) in rat at 3 mg/kg, po; assay type: ADME, organism-based; set-up: time infinity, dose 3 mg/kg, route oral; details: plasma
[6] = Plasma clearance in portal cannulated Beagle dog at 1 mg/kg, iv; assay type: ADME, organism-based, Canis lupus familiaris; set-up: dose 1 mg/kg, route intravenous
[7] = Cmax in portal cannulated Beagle dog at 1 mg/kg, po; assay type: ADME, organism-based, Canis lupus familiaris; set-up: dose 1 mg/kg, route oral; details: in vivo
[8] = molecular target: Muscarinic acetylcholine receptor M4 (Homo sapiens) (UniProt P08173); assay: Inhibition of muscarinic M4 receptor at 1 uM
[9] = Bioavailability in Beagle dog at 0.5 mg/kg, po; assay type: ADME, organism-based, Canis lupus familiaris; details: in vivo
[10] = Intrinsic clearance in human microsomes; assay type: ADME, Microsome
[11] = molecular target: Microsomal triglyceride transfer protein large subunit (Homo sapiens, UniProt P55157); assay: Inhibition of MTP assessed as inhibition of apoB secretion from human HepG2 cells; assay type: cell-based
[12] = Tmax in Beagle dog at 5 mg/kg, po; assay type: ADME, organism-based, Canis lupus familiaris; set-up: dose 5 mg/kg, route oral; details: in vivo
Cytochrome P450 2D6 = Cytochrome P450 2D6 (Homo sapiens, UniProt P10635); assay: Inhibition of CYP2D6; assay type: ADME
[13] = Half life in portal cannulated Beagle dog at 1 mg/kg, iv; assay type: ADME, organism-based, Canis lupus familiaris; set-up: dose 1 mg/kg, route intravenous; details: in vivo
[14] = Bioavailability in portal cannulated Beagle dog at 1 mg/kg, po; assay type: ADME, organism-based, Canis lupus familiaris; details: in vivo
[15] = molecular target: Adenosine receptor A1 (Homo sapiens) (UniProt P30542); assay: Inhibition of adenosine A1 receptor at 1 uM
[16] = Tmax in Beagle dog at 0.5 mg/kg, po; assay type: ADME, organism-based, Canis lupus familiaris; set-up: dose 0.5 mg/kg, route oral; details: in vivo
[17] = Permeability from apical to basolateral side of the Caco-2 cell membrane at 1 uM in presence of calcium; assay type: ADME, cell-based; details: human
[18] = Plasma clearance in rat at 5 mg/kg, iv; assay type: ADME, organism-based; set-up: dose 5 mg/kg, route intravenous
[19] = Cmax in Beagle dog at 5 mg/kg, po; assay type: ADME, organism-based, Canis lupus familiaris; set-up: dose 5 mg/kg, route oral; details: in vivo
Plasma [20] = assay: Percentage unbound ligand in monkey blood at 0.2 uM; assay type: ADME, cell-free, Macaca mulatta; details: rhesus monkey
[21] = Volume of distribution at steady state in rat at 5 mg/kg, iv; assay type: ADME, organism-based; set-up: dose 5 mg/kg, route intravenous; details: in vivo, read-out: Vdss
Plasma [22] = assay: Percentage unbound ligand in rat blood at 1 uM; assay type: ADME, cell-free
[23] = Inhibition of MTP assessed as inhibition of apoB secretion from canine hepatocytes; assay type: cell-based; details: Canis lupus familiaris, Hepatocyte
[24] = AUC (0 to infinity) in rat at 1 mg/kg, iv; assay type: ADME, organism-based; set-up: time infinity, dose 1 mg/kg, route intravenous; details: plasma
[25] = Volume of distribution at steady state in Beagle dog at 0.5 mg/kg, iv; assay type: ADME, organism-based, Canis lupus familiaris; set-up: dose 0.5 mg/kg, route intravenous; details: in vivo, read-out: Vdss
[26] = Tmax in portal cannulated Beagle dog at 1 mg/kg, po; assay type: ADME, organism-based, Canis lupus familiaris; set-up: dose 1 mg/kg, route oral; details: in vivo
[27] = molecular target: Glucocorticoid receptor (Homo sapiens) (UniProt P04150); assay: Inhibition of glucocorticoid receptor at 1 uM
Homo sapiens [28] = organism: Homo sapiens; assay: Inhibition of kainate receptor at 1 uM
[29] = Half life in monkey at 0.5 mg/kg, iv; assay type: ADME, organism-based, Macaca mulatta; set-up: dose 0.5 mg/kg, route intravenous; details: rhesus monkey, in vivo
[30] = Permeability from apical to basolateral side of the Caco-2 cell membrane at 10 uM in presence of calcium; assay type: ADME, cell-based; details: human
Canis familiaris [31] = assay: Decrease in food intake in obese Beagle dog at 0.39 mg/kg, po after 3 months; assay type: functional, Canis lupus familiaris; set-up: scale not given: the % may be the effect or the level left
Homo sapiens [32] = organism: Homo sapiens; assay: Inhibition of IKr potassium channel at 1 uM
[33] = Plasma clearance in Beagle dog at 0.5 mg/kg, iv; assay type: ADME, organism-based, Canis lupus familiaris; set-up: dose 0.5 mg/kg, route intravenous
[34] = molecular target: Beta-1 adrenergic receptor (Homo sapiens) (UniProt P08588); assay: Inhibition of adrenergic b1 receptor at 1 uM
[35] = Permeability from apical to basolateral side of the Caco-2 cell membrane at 1 uM; assay type: ADME, cell-based; details: human
Cytochrome P450 3A4 = Cytochrome P450 3A4 (Homo sapiens, UniProt P08684); assay: Inhibition of CYP3A4; assay type: ADME
[36] = Bioavailability in rat at 3 mg/kg, po; assay type: ADME, organism-based; details: in vivo
Canis familiaris [37] = assay: Decrease in cholesterol level in obese Beagle dog at 0.39 mg/kg, po after 3 months; assay type: functional, Canis lupus familiaris; set-up: scale not given: the % may be the effect or the level left
[38] = molecular target: Delta-type opioid receptor (Homo sapiens) (UniProt P41143); assay: Inhibition of delta opioid receptor at 1 uM
[39] = molecular target: 5-hydroxytryptamine receptor 1A (Homo sapiens) (UniProt P08908); assay: Inhibition of 5HT1A receptor at 1 uM
[40] = Ratio of drug level in blood to plasma in human; assay type: ADME, cell-free; details: blood and plasma, read-out: BPR
CYP2D6 = assay: Metabolic stability in human liver microsome at 0.5 uM in presence of 5 uM CYP2D6 inhibitor quinidine; assay type: ADME; details: liver microsomes, with 5 uM quinidine (CYP2D6 inhibitor)
Plasma [41] = assay: Percentage unbound ligand in human blood at 0.2 uM; assay type: ADME, cell-free
[42] = Bioavailability in Beagle dog at 5 mg/kg, po; assay type: ADME, organism-based, Canis lupus familiaris; details: in vivo
CYP1A2 = assay: Metabolic stability in human liver microsome at 0.5 uM in presence of 5 uM CYP1A2 inhibitor furafylline; assay type: ADME; details: liver microsomes, with 5 uM furafylline (CYP1A2 inhibitor)
[43] = molecular target: Adenosine receptor A2a (Homo sapiens) (UniProt P29274); assay: Inhibition of adenosine A2a receptor at 1 uM
[44] = molecular target: Histamine H2 receptor (Homo sapiens) (UniProt P25021); assay: Inhibition of histamine H2 receptor at 1 uM
[45] = Cmax in rat at 30 mg/kg, po after 2.8 hrs; assay type: ADME, organism-based; set-up: dose 30 mg/kg, route oral; details: in vivo
[46] = Ratio of drug level in blood to plasma in rat; assay type: ADME, cell-free; details: blood and plasma, read-out: BPR
Canis familiaris [47] = assay: Increase in fecal fat in obese Beagle dog at 0.39 mg/kg, po after 3 months; assay type: functional, Canis lupus familiaris, Feces
[48] = Ratio of drug level in blood to plasma in dog; assay type: ADME, cell-free, Canis lupus familiaris; details: blood and plasma, read-out: BPR
[49] = AUC (0 to t) in Beagle dog at 0.5 mg/kg, iv; assay type: ADME, organism-based, Canis lupus familiaris; set-up: dose 0.5 mg/kg, route intravenous; details: plasma
[50] = Metabolic stability in human liver microsome at 0.5 uM; assay type: ADME; details: liver microsomes
[51] = molecular target: Adrenergic receptor alpha-2 (Homo sapiens) (UniProt P08913+P18825+P18089); assay: Inhibition of adrenergic a2 receptor at 1 uM; assay type: protein assay
[52] = AUC (0 to infinity) in Beagle dog at 0.5 mg/kg, po; assay type: ADME, organism-based, Canis lupus familiaris; set-up: time infinity, dose 0.5 mg/kg, route oral; details: plasma
[53] = molecular target: Serotonin 3 (5-HT3) receptor (Homo sapiens) (UniProt P46098+A5X5Y0+O95264+Q70Z44+Q8WXA8); assay: Inhibition of 5HT3 receptor at 1 uM; assay type: protein-complex assay
[54] = Cmax in Beagle dog at 0.5 mg/kg, po; assay type: ADME, organism-based, Canis lupus familiaris; set-up: dose 0.5 mg/kg, route oral; details: in vivo
[55] = molecular target: D(3) dopamine receptor (Homo sapiens) (UniProt P35462); assay: Inhibition of dopamine D3 receptor at 1 uM

Adenosine receptor A2a (Homo sapiens), sequence (P29274 whole entry): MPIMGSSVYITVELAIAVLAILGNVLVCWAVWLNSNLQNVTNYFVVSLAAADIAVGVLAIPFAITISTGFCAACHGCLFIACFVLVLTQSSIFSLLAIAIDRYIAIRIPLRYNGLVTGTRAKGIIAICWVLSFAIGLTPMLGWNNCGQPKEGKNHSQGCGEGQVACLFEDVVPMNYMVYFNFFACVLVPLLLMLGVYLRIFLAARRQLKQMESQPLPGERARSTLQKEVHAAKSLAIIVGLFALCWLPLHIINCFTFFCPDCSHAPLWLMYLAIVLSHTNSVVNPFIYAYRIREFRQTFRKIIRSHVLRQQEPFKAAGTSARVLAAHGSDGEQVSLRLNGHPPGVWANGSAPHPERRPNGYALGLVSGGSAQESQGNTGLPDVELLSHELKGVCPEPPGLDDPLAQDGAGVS
Cytochrome P450 2D6, sequence (P10635 whole entry): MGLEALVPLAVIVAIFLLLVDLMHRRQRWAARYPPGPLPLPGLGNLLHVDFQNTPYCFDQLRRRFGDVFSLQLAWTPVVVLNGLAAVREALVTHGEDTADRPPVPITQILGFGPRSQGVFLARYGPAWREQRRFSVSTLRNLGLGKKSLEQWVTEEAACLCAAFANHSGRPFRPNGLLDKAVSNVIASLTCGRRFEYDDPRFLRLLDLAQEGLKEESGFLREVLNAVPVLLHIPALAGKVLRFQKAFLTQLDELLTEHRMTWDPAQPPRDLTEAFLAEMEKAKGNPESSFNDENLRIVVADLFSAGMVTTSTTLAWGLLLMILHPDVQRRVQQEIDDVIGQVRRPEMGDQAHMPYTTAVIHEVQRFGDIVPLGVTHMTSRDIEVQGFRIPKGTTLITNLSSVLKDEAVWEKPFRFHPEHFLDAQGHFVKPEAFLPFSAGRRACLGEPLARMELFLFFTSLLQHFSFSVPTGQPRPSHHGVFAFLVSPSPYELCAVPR
5-hydroxytryptamine receptor 1A (Homo sapiens), sequence (P08908 whole entry): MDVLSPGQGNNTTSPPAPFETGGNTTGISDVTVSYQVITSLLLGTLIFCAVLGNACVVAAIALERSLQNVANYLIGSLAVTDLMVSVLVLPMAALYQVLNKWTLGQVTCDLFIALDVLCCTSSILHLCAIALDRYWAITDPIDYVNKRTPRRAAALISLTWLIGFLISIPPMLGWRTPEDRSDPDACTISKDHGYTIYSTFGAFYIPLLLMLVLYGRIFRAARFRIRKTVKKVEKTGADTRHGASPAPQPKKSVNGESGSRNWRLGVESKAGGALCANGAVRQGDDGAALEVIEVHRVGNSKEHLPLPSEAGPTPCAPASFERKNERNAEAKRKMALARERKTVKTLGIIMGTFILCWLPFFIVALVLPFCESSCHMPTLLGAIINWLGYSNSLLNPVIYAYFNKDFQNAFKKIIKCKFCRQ
Adenosine receptor A1 (Homo sapiens), sequence (P30542 whole entry): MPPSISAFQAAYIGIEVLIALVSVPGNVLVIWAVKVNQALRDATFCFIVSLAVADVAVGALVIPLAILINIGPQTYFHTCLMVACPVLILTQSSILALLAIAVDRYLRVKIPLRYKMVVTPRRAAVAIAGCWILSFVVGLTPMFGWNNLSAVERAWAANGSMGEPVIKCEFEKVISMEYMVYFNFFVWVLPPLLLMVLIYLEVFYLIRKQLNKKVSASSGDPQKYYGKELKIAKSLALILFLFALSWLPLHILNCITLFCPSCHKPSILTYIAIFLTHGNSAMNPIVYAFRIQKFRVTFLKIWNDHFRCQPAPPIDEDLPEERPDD
Melanocortin receptor 4 (Homo sapiens), sequence (P32245 whole entry): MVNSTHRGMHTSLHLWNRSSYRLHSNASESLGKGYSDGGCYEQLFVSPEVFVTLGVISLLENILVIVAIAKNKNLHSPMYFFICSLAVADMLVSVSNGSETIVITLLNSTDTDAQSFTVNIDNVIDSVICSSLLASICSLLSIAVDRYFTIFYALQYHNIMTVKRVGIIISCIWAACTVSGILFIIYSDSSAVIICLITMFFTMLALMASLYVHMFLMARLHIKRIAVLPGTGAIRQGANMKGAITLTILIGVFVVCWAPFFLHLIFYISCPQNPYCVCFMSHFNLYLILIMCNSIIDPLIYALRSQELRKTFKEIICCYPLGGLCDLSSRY
Microsomal triglyceride transfer protein large subunit, sequence (P55157 whole entry): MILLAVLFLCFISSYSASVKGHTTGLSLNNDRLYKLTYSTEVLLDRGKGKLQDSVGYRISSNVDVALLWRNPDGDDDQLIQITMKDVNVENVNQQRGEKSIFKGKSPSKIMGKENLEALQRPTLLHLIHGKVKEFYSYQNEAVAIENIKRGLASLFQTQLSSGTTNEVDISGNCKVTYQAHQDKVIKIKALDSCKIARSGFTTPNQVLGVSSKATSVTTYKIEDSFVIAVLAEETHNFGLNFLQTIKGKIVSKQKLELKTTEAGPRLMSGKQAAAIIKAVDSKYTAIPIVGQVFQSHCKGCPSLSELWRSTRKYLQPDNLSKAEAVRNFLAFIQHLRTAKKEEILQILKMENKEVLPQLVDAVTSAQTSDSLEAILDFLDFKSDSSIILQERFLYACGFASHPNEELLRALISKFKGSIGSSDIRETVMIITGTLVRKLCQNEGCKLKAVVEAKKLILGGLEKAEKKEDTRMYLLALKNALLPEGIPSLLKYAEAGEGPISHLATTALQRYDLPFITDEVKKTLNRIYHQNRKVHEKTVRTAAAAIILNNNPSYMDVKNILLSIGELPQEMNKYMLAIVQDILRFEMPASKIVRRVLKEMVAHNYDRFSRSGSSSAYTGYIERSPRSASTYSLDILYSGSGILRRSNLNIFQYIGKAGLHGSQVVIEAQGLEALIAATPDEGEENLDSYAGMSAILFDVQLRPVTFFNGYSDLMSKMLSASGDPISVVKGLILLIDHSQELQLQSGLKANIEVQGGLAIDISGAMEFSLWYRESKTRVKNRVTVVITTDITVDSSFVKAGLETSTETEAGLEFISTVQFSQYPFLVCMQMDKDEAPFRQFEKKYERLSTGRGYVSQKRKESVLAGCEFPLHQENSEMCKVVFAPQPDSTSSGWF
Muscarinic acetylcholine receptor M4 (Homo sapiens), sequence (P08173 whole entry): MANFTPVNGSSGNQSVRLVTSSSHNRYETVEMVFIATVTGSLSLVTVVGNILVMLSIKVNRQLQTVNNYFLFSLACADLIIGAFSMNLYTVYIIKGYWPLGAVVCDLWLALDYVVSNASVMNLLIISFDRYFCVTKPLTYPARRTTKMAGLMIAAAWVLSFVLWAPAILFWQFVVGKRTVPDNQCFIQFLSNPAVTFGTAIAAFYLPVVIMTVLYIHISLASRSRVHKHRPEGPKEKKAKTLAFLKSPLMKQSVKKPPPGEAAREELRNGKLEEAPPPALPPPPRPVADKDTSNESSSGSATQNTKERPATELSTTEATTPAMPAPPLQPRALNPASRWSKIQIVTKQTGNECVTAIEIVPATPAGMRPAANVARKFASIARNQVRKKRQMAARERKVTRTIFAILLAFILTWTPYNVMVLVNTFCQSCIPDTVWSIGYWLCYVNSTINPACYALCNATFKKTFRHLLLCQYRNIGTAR
Delta-type opioid receptor (Homo sapiens), sequence (P41143 whole entry): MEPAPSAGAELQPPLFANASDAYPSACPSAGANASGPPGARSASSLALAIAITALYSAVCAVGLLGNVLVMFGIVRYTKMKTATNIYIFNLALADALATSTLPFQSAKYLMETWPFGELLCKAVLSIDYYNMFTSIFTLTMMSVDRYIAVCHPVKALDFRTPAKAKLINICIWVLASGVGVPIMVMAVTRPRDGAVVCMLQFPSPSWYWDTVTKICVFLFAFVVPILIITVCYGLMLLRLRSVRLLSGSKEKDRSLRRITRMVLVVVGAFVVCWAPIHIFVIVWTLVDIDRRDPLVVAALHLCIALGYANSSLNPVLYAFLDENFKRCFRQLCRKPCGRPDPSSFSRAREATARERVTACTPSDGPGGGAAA
Type-1 angiotensin II receptor (Homo sapiens), sequence (P30556 whole entry): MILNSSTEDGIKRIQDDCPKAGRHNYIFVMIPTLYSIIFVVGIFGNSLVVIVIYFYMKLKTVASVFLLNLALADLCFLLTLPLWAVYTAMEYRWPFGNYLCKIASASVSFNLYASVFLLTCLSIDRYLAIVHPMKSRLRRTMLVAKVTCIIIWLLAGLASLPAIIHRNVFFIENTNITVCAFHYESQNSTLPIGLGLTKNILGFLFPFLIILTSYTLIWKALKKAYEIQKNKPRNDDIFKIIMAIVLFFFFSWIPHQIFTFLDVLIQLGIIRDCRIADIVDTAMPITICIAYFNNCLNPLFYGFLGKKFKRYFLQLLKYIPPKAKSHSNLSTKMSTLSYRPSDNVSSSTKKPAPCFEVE
Histamine H2 receptor (Homo sapiens), sequence (P25021 whole entry): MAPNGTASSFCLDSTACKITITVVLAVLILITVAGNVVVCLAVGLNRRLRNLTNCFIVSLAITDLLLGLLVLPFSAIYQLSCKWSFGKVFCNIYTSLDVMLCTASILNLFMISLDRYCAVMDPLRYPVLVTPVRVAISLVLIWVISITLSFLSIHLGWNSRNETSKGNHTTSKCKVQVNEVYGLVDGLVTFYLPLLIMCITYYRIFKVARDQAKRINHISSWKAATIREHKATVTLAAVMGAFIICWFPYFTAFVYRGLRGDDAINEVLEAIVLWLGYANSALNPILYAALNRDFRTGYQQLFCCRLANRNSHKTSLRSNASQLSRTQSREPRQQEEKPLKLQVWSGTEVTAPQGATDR
Beta-1 adrenergic receptor (Homo sapiens), sequence (P08588 whole entry, looked up): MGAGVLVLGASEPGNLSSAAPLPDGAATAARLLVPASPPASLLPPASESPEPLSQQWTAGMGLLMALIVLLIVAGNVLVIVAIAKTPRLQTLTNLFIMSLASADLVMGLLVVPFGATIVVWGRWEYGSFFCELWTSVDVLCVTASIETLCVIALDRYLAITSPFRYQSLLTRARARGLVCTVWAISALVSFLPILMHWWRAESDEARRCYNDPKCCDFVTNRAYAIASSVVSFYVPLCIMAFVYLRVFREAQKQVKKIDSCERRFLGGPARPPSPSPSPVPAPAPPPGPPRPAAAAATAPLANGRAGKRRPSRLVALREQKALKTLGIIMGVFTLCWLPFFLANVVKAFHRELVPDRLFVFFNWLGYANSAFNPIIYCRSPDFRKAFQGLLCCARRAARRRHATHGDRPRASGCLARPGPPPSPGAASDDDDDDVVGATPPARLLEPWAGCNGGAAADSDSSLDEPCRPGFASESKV

Activity [1]: inactive
half-life at 0.5 µM (CYP2C19): 1.17 h
Tmax [2]: 2.1 h
Activity [3]: inactive
AUC(0-inf) [4]: 55 ng·h/mL
AUC(0-inf) [5]: 40.7 ng·h/mL
clearance [6]: 7.6 mL/min/kg
Cmax [7]: 26.8 ng/mL
Activity [8]: inactive
bioavailability [9]: 43%
CLint scaled [10]: 91 mL/min/kg
pIC50 [11]: 8.54
Tmax [12]: 3 h
pIC50 (Cytochrome P450 2D6): < 4.52
half-life [13]: 7.8 h
bioavailability [14]: 10.6%
Activity [15]: inactive
Tmax [16]: 3 h
Papp A→B at 1 µM [17]: 0.6 ×10⁻⁶ cm/s
clearance [18]: 14 mL/min/kg
Cmax [19]: 250 ng/mL
Fu (Plasma [20]): 0.026%
Vd [21]: 3.3 L/kg
Fu (Plasma [22]): 0.032%
AUC(0-inf) [24]: 530 ng·h/mL
Vd [25]: 1 L/kg
Tmax [26]: 6.3 h
Activity [27]: inactive
Activity (Homo sapiens [28]): inactive
half-life [29]: 6.7 h
Papp A→B at 10 µM [30]: 0.4 ×10⁻⁶ cm/s
clearance [33]: 5.5 mL/min/kg
Activity [34]: inactive
Papp A→B at 1 µM [35]: 0.9 ×10⁻⁶ cm/s
pIC50 (Cytochrome P450 3A4): < 4.52
bioavailability [36]: 2.6%
Activity [38]: inactive
Activity [39]: inactive
blood plasma ratio [40]: 0.61
half-life at 0.5 µM (CYP2D6): 0.6 h
Fu (Plasma [41]): 0.0097%
bioavailability [42]: 12%
half-life at 0.5 µM (CYP1A2): 0.75 h
Activity [43]: inactive
Activity [44]: inactive
Cmax [45]: 21 ng/mL
blood plasma ratio [46]: 0.64
blood plasma ratio [48]: 0.54
AUC(0-t) [49]: 1490 ng·h/mL
half-life at 0.5 µM [50]: 0.8 h
Activity [51]: inactive
AUC(0-inf) [52]: 663 ng·h/mL
Activity [53]: inactive
Cmax [54]: 31.1 ng/mL
Activity [55]: inactive
Structure (SMILES): CN(Cc1ccccc1)C(=O)[C@@H](NC(=O)c1cc2cc(NC(=O)c3ccccc3-c3ccc(C(F)(F)F)cc3)ccc2n1C)c1ccccc1 [DIRLOTAPIDE]
pIC50 [23]: 8.82
Activity (Canis familiaris [31]): 54%
Activity (Homo sapiens [32]): inactive
Activity (Canis familiaris [37]): 51%
Activity (Canis familiaris [47]): 1.86%
